How the values were obtained:
[1] = Analysis by the general solubility equation (GSE): logP and melting point; assay type: physicochemical; conditions: Mp >200 °C, moderate lipophilicity
Excerpt: The general solubility equation (GSE) developed by Jain et al. provides a quantitative relationship between the three parameters: log Sw = 0.5 − 0.01(Mp − 25) − log P(1)
Starting from the general solubility equation, the poorly soluble drugs were sub-classified by the group of Bergström et al. in two types of molecules: “grease ball” and “brick dust” molecules. […] These compounds cannot form bonds with water molecules, and therefore their solubility is limited by the solvation process. By contrast, “brick dust” molecules are usually compounds with rather rigid and flat molecules with a high melting point (>190 °C) and moderate lipophilicity. Their solubility is being solid-state-limited being mainly restricted by the inability of the compound to dissociate from the crystal lattice and can generally be improved by different methods involving a disruption of the stable crystal lattice.

NCI 60 cancer lines = tested on: NCI 60 cancer lines; design: method as in PMID 20728965; conditions: cited from earlier work
[2] = the 43 lines with logCI50 under −4

| Structure (SMILES) | type of poorly soluble molecule (grease ball / brick dust) [1] | number of the NCI 60 cancer lines with logCI50 under −4 (NCI 60 cancer lines) | logCI50 average (NCI 60 cancer lines; [2]) | logCI50 values (range) (NCI 60 cancer lines; [2]) |
| --- | --- | --- | --- | --- |
| Cc1cc(NC(=S)NC(=O)c2ccc(Cl)cc2)n[nH]1 [BC2] | brick dust | – | – | – |
| Cc1ccc(C(=O)NC(=S)Nc2cc(C)[nH]n2)cc1 [BM2] | brick dust | – | – | – |
| Cc1ccc(C(=O)NC(=S)Nc2cc(C)nn2-c2ccccc2)cc1 [BM5] | brick dust | – | – | – |
| Cc1cc(NC(=S)NC(=O)c2ccccc2)n[nH]1 [BT2] | brick dust | – | – | – |
| O=C(NC(=S)Nc1cc(-c2ccc(Br)cc2)n[nH]1)c1ccccc1 [N-benzoyl-N'-[3-(4-bromophenyl)-1H-pyrazol-5-yl]-thiourea] | – | 43 | −5.02 | −4.12 to −5.75 |

From PMC6271227, “Biopharmaceutical Profiling of New Antitumor Pyrazole Derivatives” (Molecules, 2014)
